# Laboratory results from US11014917B2, “5-fluoro-c-(aryl or heterocyclyl)-glycoside derivatives useful as dual SGLT1 / SGLT2 modulators” (Janssen Pharmaceutica NV, priority 2017, dated 2021).
# What was measured:
# human SGLT1 = molecular target: T1, human SGLT1 (Homo sapiens, UniProt P13866); assay: SGLT1 assay: Na-dependent 14C-AMG uptake in CHO-K1 cells stably expressing human SGLT1; assay type: cell-based; settings: for IC50: average if tested more than once
# T1 construct: expressed in transfected cells
# T1 sequence (P13866 1-664): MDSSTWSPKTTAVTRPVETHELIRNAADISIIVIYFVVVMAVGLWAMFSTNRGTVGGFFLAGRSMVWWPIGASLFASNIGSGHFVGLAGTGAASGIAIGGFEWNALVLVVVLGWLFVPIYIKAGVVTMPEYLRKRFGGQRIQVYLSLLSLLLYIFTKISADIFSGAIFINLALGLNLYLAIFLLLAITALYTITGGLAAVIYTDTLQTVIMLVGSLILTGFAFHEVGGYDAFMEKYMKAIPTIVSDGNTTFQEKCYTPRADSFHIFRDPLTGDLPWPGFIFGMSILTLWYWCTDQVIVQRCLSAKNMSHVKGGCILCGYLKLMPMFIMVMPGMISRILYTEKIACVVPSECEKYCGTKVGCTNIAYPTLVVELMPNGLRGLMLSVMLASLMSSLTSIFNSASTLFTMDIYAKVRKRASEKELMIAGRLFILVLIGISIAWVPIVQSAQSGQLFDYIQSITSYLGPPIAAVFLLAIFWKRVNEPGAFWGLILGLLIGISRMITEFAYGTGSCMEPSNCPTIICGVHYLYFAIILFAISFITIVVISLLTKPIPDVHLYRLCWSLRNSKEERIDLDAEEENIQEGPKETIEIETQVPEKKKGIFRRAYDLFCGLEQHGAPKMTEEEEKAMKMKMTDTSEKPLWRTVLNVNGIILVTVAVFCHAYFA
# Protocol: (§1) The ability of the compounds of formula (I) of the present invention to treat an SGLT-mediated condition was determined using the following procedures:
# (§2) SGLT1 and SGLT2 were cloned in form of cDNA from human small intestine (Genbank M24847), and from human kidney (Genbank M95549), respectively. Subsequently, each full cDNA was subcloned into pcDNA with each construct's integrity verified through follow-on sequencing. To generate CHO-K1 cells that stably express human SGLT1 or human SGLT2, CHO-K1 cells were transfected using DMRIE-C reagent (Life Technologies, Gaithersburg, Md.). Transfected cells were then selected in the presence of 500 μg/ml of the Geneticin (G418 Cellgro Catalog No. 30234-Cl)
# (§3) Individual clones were then characterized using the following cell-based assay for sodium-dependent glucose transport:
# (§4) Inhibition of SGLT1 and SGLT2 activity was assessed in CHO K1 cells stably expressing either human SGLT1 or SGLT2, using the SGLT specific glucose analog methyl-glucopyranoside (Sigma Catalog No. M-9376). Cells were plated (45,000 cells/well) in white wall 96-well plates (COSTAR, Cat #3903) for 24 hours in growth medium, then a final concentration of 10 mM Na-Butyrate (ALDRICH Cat #30341-0) was added. The cells were incubated for 24 hours. On the day of the assay, cells were rinsed and treated with test compounds (at concentrations of 0.001 μM to 10 μM) in assay buffer (50 mM HEPES, 20 mM Tris base, 5 mM KCl, 1 mM MgCl2, 1 mM CaCl2 and 137 mM NaCl, pH 7.4) for 10 minutes. Cells were then incubated with ^14C-a-methyl-d-glucopyranoside (AMG, Amersham Catalog No. CFB 76), using 0.07 μCi per well in 500 μM AMG final concentration. The cells were incubated for 2 hours at 37° C. with 5% CO2 and washed two times with ice-cold Phosphate Buffer Solution (Cellgro Catalog No. 21030-CV). The cells were then solubilized by adding 60 μl of MICROSCINT™20 and the Na-dependent ^14C-AMG uptake was quantified by measuring radioactivity. Plates were counted in a TopCount (Packard, Meriden, Conn.)
# (§5) Representative compounds of the present invention were tested according to the procedures as described in Biological Example 1 and 2 above, with results as listed in Table 5, below. Results are reported as the %-inhibition or IC50 value. Variability for the functional assay was typically within 20%.
# human SGLT2 = molecular target: T2, human SGLT2 (Homo sapiens, UniProt P31639); assay: SGLT2 assay: Na-dependent 14C-AMG uptake in CHO-K1 cells stably expressing human SGLT2; assay type: cell-based; settings: for IC50: average if tested more than once
# T2 construct: expressed in transfected cells
# T2 sequence (P31639 1-672): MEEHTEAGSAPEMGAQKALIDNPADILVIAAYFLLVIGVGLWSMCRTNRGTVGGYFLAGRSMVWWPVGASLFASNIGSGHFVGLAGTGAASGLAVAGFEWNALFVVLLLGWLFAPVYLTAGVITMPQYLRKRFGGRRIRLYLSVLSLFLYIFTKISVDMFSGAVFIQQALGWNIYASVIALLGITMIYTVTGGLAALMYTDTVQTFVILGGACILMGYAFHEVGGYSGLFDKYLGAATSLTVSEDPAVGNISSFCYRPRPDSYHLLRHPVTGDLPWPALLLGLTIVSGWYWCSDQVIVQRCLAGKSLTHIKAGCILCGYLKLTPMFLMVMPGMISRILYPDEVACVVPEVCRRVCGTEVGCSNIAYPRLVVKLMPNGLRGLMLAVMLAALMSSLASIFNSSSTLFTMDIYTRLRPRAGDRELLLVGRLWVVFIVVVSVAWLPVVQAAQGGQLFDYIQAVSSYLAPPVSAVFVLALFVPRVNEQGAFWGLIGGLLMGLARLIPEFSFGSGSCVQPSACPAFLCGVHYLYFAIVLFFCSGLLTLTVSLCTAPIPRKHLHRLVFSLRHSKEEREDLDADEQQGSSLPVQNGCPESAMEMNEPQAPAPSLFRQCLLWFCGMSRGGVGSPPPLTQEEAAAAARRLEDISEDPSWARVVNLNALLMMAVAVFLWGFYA
# Protocol: as §1, §2, §3, §4, §5
IC50 (human SGLT1),IC50 (human SGLT2),SMILES,further results
135 nM,23 nM,Cc1c(Cc2ccc3c(c2)SCCO3)cc([C@@H]2O[C@H](CO)[C@@H](F)[C@H](O)[C@H]2O)c2c1CCO2 [Compound 132],
9 nM,8 nM,"COc1cc(O)c([C@@H]2O[C@H](CO)[C@@H](F)[C@H](O)[C@H]2O)cc1Cc1cc2ccccc2s1 [Compound 2, (2S,3R,4R,5S,6R)-2-(5-(benzo[b]thiophen-2-ylmethyl)-2-hydroxy-4-methoxyphenyl)-5-fluoro-6-(hydroxymethyl)tetrahydro-2H-pyran-3,4-diol]",
100 nM,162 nM,O=C(N1CCCC1)N1CCc2sc(Cc3cc([C@@H]4O[C@H](CO)[C@@H](F)[C@H](O)[C@H]4O)cc4c3OCC4)cc2C1 [Compound 70],
122 nM,4 nM,CCOc1ccc(Cc2cc([C@@H]3O[C@H](CO)[C@@H](F)[C@H](O)[C@H]3O)c(O)c3c2OCC3)cc1 [Compound 63],
,,[2H]C([2H])(c1ccc2c(c1)CCCO2)c1cc([C@@H]2O[C@H](CO)[C@@H](F)[C@H](O)[C@H]2O)ccc1CC [Compound 169],SGLT1 %-inhibition (human SGLT1; @ 0.3 μM): 37.2% @ 0.3 μM; SGLT2 %-inhibition (human SGLT2; @ 0.3 μM): 72.7% @ 0.3 μM
95 nM,8 nM,COc1cc(O)c([C@@H]2O[C@H](CO)[C@@H](F)[C@H](O)[C@H]2O)cc1Cc1cc2c(s1)CCN(C#N)C2 [Compound 100],
254 nM,12 nM,CCc1ccc(Cc2cc([C@@H]3O[C@H](CO)[C@@H](F)[C@H](O)[C@H]3O)cc3c2OCC3)cc1 [Compound 134],
,,Cc1ccc([C@@H]2O[C@H](CO)[C@@H](F)[C@H](O)[C@H]2O)cc1Cc1cc2c(s1)CCN(C(=O)C1CCCC1)C2 [Compound 87],SGLT1 %-inhibition (human SGLT1; @ 0.3 μM): 48.7% @ 0.3 μM; SGLT2 %-inhibition (human SGLT2; @ 0.3 μM): 59.0% @ 0.3 μM
,,[2H]C([2H])(c1ccc2c(c1)CCCO2)c1cc([C@@H]2O[C@H](CO)[C@@H](F)[C@H](O)[C@H]2O)ccc1OC [Compound 171],SGLT1 %-inhibition (human SGLT1; @ 0.3 μM): 27.1% @ 0.3 μM; SGLT2 %-inhibition (human SGLT2; @ 0.3 μM): 69.9% @ 0.3 μM
236 nM,6 nM,OC[C@H]1O[C@@H](c2cc3c(c(Cc4ccc(OCF)cc4)c2)OCC3)[C@H](O)[C@@H](O)[C@@H]1F [Compound 133],
86 nM,10 nM,[2H]C([2H])(c1ccc2c(c1)OCCO2)c1cc([C@@H]2O[C@H](CO)[C@@H](F)[C@H](O)[C@H]2O)ccc1CC [Compound 156],
68 nM,18 nM,COc1cc(C)c(Cc2cc3ccccc3s2)cc1[C@@H]1O[C@H](CO)[C@@H](F)[C@H](O)[C@H]1O [Compound 18],
240 nM,48 nM,COC(=O)N1CCc2sc(Cc3cc([C@@H]4O[C@H](CO)[C@@H](F)[C@H](O)[C@H]4O)c(O)cc3Cl)cc2C1 [Compound 73],
6 nM,6 nM,COc1c(Cc2ccc3c(c2)CC3)cc([C@@H]2O[C@H](CO)[C@@H](F)[C@H](O)[C@H]2O)c2c1CCO2 [Compound 152],
,,Cc1cc(O)c([C@@H]2O[C@H](CO)[C@@H](F)[C@H](O)[C@H]2O)cc1Cc1cc2c(s1)CCN(C(=O)N1CCOCC1)C2 [Compound 67],SGLT1 %-inhibition (human SGLT1; @ 0.3 μM): 64.9% @ 0.3 μM; SGLT2 %-inhibition (human SGLT2; @ 0.3 μM): 57.5% @ 0.3 μM
85 nM,8 nM,CCc1ccc(Cc2cc([C@@H]3O[C@H](CO)[C@@H](F)[C@H](O)[C@H]3O)c(OC)c3c2OCC3)cc1 [Compound 135],
,,Cc1cnc(N2CCc3sc(Cc4cc([C@@H]5O[C@H](CO)[C@@H](F)[C@H](O)[C@H]5O)ccc4C)cc3C2)s1 [Compound 122],SGLT1 %-inhibition (human SGLT1; @ 0.3 μM): 31.7% @ 0.3 μM; SGLT2 %-inhibition (human SGLT2; @ 0.3 μM): 63.6% @ 0.3 μM
86 nM,3 nM,"Cc1cc(O)c([C@@H]2O[C@H](CO)[C@@H](F)[C@H](O)[C@H]2O)cc1Cc1cc2c(s1)CCN(C#N)C2 [Compound 103, 2-(5-((2S,3R,4R,5S,6R)-5-fluoro-3,4-dihydroxy-6-(hydroxymethyl)-tetrahydro-2H-pyran-2-yl)-4-hydroxy-2-methylbenzyl)-6,7-dihydrothieno[3,2-c]pyridine-5(4H)-carbonitrile]",
,,[2H]C1([2H])Oc2ccc(Cc3cc([C@@H]4O[C@H](CO)[C@@H](F)[C@H](O)[C@H]4O)cc4c3CCO4)cc2OC1([2H])[2H] [Compound 181],SGLT1 %-inhibition (human SGLT1; @ 0.3 μM): 67.0% @ 0.3 μM; SGLT2 %-inhibition (human SGLT2; @ 0.3 μM): 85.0% @ 0.3 μM
,,"Cc1ccc([C@@H]2O[C@H](CO)[C@@H](F)[C@H](O)[C@H]2O)cc1Cc1cc2c(s1)CCN(C(=O)c1nccs1)C2 [Compound 109, (2-(5-((2S,3R,4R,5S,6R)-5-fluoro-3,4-dihydroxy-6-(hydroxymethyl)-tetrahydro-2H-pyran-2-yl)-2-methylbenzyl)-6,7-dihydrothieno[3,2-c]pyridin-5(4H)-yl)(thiazol-2-yl)methanone]",inhibition at 0.3 µM (human SGLT1; @ 0.3 μM): 39.5%; inhibition at 0.3 µM (human SGLT2; @ 0.3 μM): 72.7%
14 nM,3 nM,"OC[C@H]1O[C@@H](c2cc(Cc3ccc4c(c3)OCCO4)c3c(c2O)CCO3)[C@H](O)[C@@H](O)[C@@H]1F [Compound 61, (2S,3R,4R,5S,6R)-2-(7-((2,3-dihydrobenzo[b][1,4]dioxin-6-yl)methyl)-4-hydroxy-2,3-dihydrobenzofuran-5-yl)-5-fluoro-6-(hydroxymethyl)tetrahydro-2H-pyran-3,4-diol]",
138 nM,11 nM,[2H]C([2H])([2H])Oc1cc(CC)c(Cc2ccc3c(c2)OCCO3)cc1[C@@H]1O[C@H](CO)[C@@H](F)[C@H](O)[C@H]1O [Compound 182],
126 nM,107 nM,"COC[C@H]1O[C@@H](c2cc(Cc3cc4ccccc4s3)c(OC)cc2O)[C@H](O)[C@@H](O)[C@@H]1F [Compound 9, (2S,3R,4R,5S,6R)-2-[5-(1-benzothiophen-2-ylmethyl)-2-hydroxy-4-methoxyphenyl]-5-fluoro-6-(methoxymethyl)oxane-3,4-diol]",
,,COC(=O)N1CCc2sc(Cc3cc([C@@H]4O[C@H](CO)[C@@H](F)[C@H](O)[C@H]4O)c(OC)cc3Cl)cc2C1 [Compound 76],SGLT1 %-inhibition (human SGLT1; @ 0.3 μM): 28.6% @ 0.3 μM; SGLT2 %-inhibition (human SGLT2; @ 0.3 μM): 72.2% @ 0.3 μM
223 nM,11 nM,COc1cc(C)c(Cc2cc3c(s2)CCN(C(=O)N2CCCC2)C3)cc1[C@@H]1O[C@H](CO)[C@@H](F)[C@H](O)[C@H]1O [Compound 81],
85 nM,82 nM,COc1cc(O)c([C@@H]2O[C@H](C)[C@@H](F)[C@H](O)[C@H]2O)cc1Cc1cc2ccccc2s1 [Compound 10],
847 nM,982 nM,COc1cc(Cl)c([C@@H]2O[C@H](CC#N)[C@@H](F)[C@H](O)[C@H]2O)cc1Cc1cc2ccccc2s1 [Compound 26],
